The text below walks through data of patent US20040127519A1 (Pharmacia Corporation, priority 2002, published 2004).

Sequence of Recombinant MAPKAPK2 (P49137 whole entry, species assumed): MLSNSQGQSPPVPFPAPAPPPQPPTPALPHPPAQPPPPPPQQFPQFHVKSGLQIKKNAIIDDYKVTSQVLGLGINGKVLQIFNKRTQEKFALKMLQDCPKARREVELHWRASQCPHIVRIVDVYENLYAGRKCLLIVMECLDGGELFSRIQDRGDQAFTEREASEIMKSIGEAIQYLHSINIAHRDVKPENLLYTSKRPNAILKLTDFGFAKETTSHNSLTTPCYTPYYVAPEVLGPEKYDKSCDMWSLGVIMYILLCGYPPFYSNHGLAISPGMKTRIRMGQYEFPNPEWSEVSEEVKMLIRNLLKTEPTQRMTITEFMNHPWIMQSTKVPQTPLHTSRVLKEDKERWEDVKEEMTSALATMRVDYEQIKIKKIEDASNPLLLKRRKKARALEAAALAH

For one assay, the target named is Recombinant MAPKAPK2 (Homo sapiens, UniProt P49137). The assay can be described thus: Determination of MK-2 IC50 (HSP-peptide phosphorylation, anion exchange resin capture assay). The note with it: MK-2 Avg. IC50, Table 2, tricyclic aminocyanopyridine MK-2 inhibitors. Type of assay: biochemical. The method, then:
The phosphorylation of HSP-peptide ([…]) by MAPKAPK2 was measured using an anion exchange resin capture assay method. […] The reaction was terminated and [γ^33P]ATP was removed from solution by the addition of 150 μl of AG 1×8 ion exchange resin in 900 mM sodium formate pH 3.0. A 50 μl aliquot of head volume was removed from the quenched reaction mixture and added to a 96-well plate, 150 μl of Microscint-40 (Packard) was added and the amount of phosphorylated-peptide was determined. Allow the Microscint to sit in the plates for 60 minutes prior to counting.
Compounds are evaluated as potential inhibitors of the MK2 kinase by measuring their effects on MK2 phosphorylation of the peptide substrate. Compounds may be screened initially at two concentrations prior to determination of IC50 values. Screening results are expressed as percent inhibition at the concentrations of compound tested. For IC50 value determinations, compounds are tested at six concentrations in ten-fold serial dilutions with each concentration tested in triplicate. Results are expressed as IC50 values in micromolar. The assay is performed at a final concentration of 2% DMSO.
For orientation: IC50 means the concentration that gives 50% inhibition. Turning to `N#Cc1c(N)nc2c(c1N)Cc1cccc(OCCN3CCCC3)c1O2` [Example 59], the IC50 is 45.2 µM.
`COc1cc2c(cc1OC)Oc1nc(N)c(C#N)c(NCCN(C)C)c1C2` [Example 63]: the IC50 was determined as 79.1 µM.
Still for that read-out and setting: in the case of `N#Cc1c(N)nc2c(c1N)Cc1cc(C(=O)O)ccc1O2` [Example 20] it was 0.857 µM; in that of `COc1ccc2c(c1)Oc1nc(N)c(C#N)c(N)c1C2` [Example 27], 1.72 µM; in that of `N#Cc1c(N)nc2c(c1N)Cc1cccc(OCC(=O)O)c1O2` [Example 62], 72.2 µM.
The same measure, in the same setting: in the case of `CN(C)CCOc1ccc2c(c1)Oc1nc(N)c(C#N)c(N)c1C2` [Example 28] it was 1.75 µM; in that of `N#Cc1c(N)nc2c(c1N)Cc1cc(-c3ccccc3)ccc1O2` [Example 65], 83.8 µM.
Same read-out and setting: then `N#Cc1c(N)nc2c(c1N)Cc1cc(O)ccc1S2` [Example 51], with 17.4 µM; and `C=CCOc1cc2c(cc1OCC=C)Oc1nc(N)c(C#N)c(N)c1C2` [Example 43], with 9.6 µM.
With `N#Cc1c(N)nc2c(c1N)Cc1cc(OCCN)c(OCCN)cc1O2` [Example 31], the IC50 came to 2.55 µM.
Same read-out and setting: in the case of `N#Cc1c(N)nc2c(c1N)Cc1cccc(OCCN)c1O2` [Example 71] it was 161 µM.

The same assay, now with this note: MK-2 Avg. IC50, Table I, aminocyanopyridine MK-2 inhibitors.
With `N#Cc1c(-c2cnc[nH]2)cc(-c2cccc(O)c2)nc1N` [Example 20], the IC50 stood at 5.81 µM.
On the same count and under the same terms, then `COc1ccc(-c2cc(-c3nnc[nH]3)c(C#N)c(N)n2)cc1` [Example 48], with 17.3 µM; and `N#Cc1c(N)nc2ccccc2c1N` [Example 73], with 45.5 µM.
For the compound `N#Cc1c(N)nc2c(c1-c1ccco1)CCc1cc(C(=O)O)ccc1-2` [Example 5], the IC50 turned out to be 2.35 µM.
Still for that read-out and setting: in the case of `N#Cc1c(-c2ccc(Oc3ccccc3)cc2)cc(-c2ccco2)nc1N` [Example 85] it was 59.3 µM.
As to `N#Cc1c(N)nc2c(c1-c1ccccc1F)CCc1ccccc1-2` [Example 15], the half-inhibitory concentration (IC50) was found to be 4.47 µM.
Turning to `N#Cc1c(-c2ccccc2F)cc(-c2ccc(O)c(O)c2)nc1N` [Example 27], the IC50 was 7.54 µM.
Same read-out and setting: in the case of `CCOC(=O)c1ccc(-c2cc(-c3cnc[nH]3)c(C#N)c(N)n2)cc1` [Example 78] it was 49.1 µM.
In the case of `N#Cc1c(N)nc2c(c1-c1cccc(F)c1)CCc1n[nH]cc1-2` [Example 31], the IC50 came out at 8.5 µM.
For the compound `N#Cc1c(N)nc2c(c1-c1c(F)cccc1F)CCc1[nH]ncc1-2` [Example 11], the IC50 was 3.59 µM.
On the same count and under the same terms, in the case of `N#Cc1c(N)nc2c(c1-c1ccc(F)cc1)CCc1n[nH]cc1-2` [Example 42] it was 12.9 µM; in that of `COc1cccc(-c2c(C#N)c(N)nc3c2CCc2[nH]ncc2-3)c1` [Example 56], 27.8 µM.
Still for that read-out and setting: then `N#Cc1c(-c2ccco2)cc(-c2cn[nH]c2)nc1N` [Example 39], with 11.6 µM.
On the same count and under the same terms, then `N#Cc1c(N)nc2c(c1-c1nnc[nH]1)CCc1cc(C(=O)O)ccc1-2` [Example 19], with 5.74 µM; and `CSc1cc(-c2ccco2)nc(N)c1C#N` [Example 50], with 22.5 µM; and `COc1cc(N)c(C#N)c(N)n1` [Example 79], with 50.9 µM.
On to `N#Cc1c(-c2ccco2)cc(-c2ccco2)nc1N` [Example 75], for which the half-inhibitory concentration (IC50) is 47.6 µM.
Same read-out and setting: in the case of `N#Cc1c(-c2ccco2)cc(-c2cccc3cccc(O)c23)nc1N` [Example 133] it was 153 µM; in that of `N#Cc1c(N)nc2c(c1-c1cccnc1)CCc1n[nH]cc1-2` [Example 86], 62.5 µM; in that of `N#Cc1c(N)nc2c(c1-c1ccco1)CCc1[nH]ccc1-2` [Example 34], 9.4 µM.
As for `N#Cc1c(-c2cnc[nH]2)cc(-c2ccc(Cl)cc2)nc1N` [Example 69], the half-maximal inhibitory concentration (IC50) was 42.9 µM.
The same measure, in the same setting: then `N#Cc1c(-c2ccc(C(F)(F)F)cc2F)cc(-c2ccco2)nc1N` [Example 128], with 133 µM.
Same read-out and setting: in the case of `N#Cc1c(-c2ccco2)cc(-c2ccccn2)nc1N` [Example 132] it was 149 µM.
Still for that read-out and setting: in the case of `N#Cc1c(N)nc2c(c1N)CC(C(F)(F)F)O2` (stereo not shown) [Example 23] it was 6.14 µM; in that of `N#Cc1c(-c2ccco2)cc(-c2nccs2)nc1N` [Example 142], 167 µM.
Regarding `N#Cc1c(N)nc2c(c1-c1ccco1)C1CCC2C1` (stereo not shown) [Example 122], the half-maximal inhibitory concentration (IC50) turned out to be 122 µM.
On the same count and under the same terms, then `N#Cc1c(N)nc2c(c1-c1ccco1)CCc1ccccc1-2` [Example 36], with 9.42 µM.
For the compound `C#CCOCC1Cc2c(nc(N)c(C#N)c2N)O1` (stereo not shown) [Example 110], the IC50 stood at 105 µM.
On the same count and under the same terms, then `COC(=O)c1ccc(-c2cc(-c3ccco3)c(C#N)c(N)n2)cc1` [Example 150], with 199 µM.
For `N#Cc1ccc(-c2c(C#N)c(N)nc3c2CCc2[nH]ncc2-3)cc1` [Example 81], the IC50 came to 52.1 µM.
The same measure, in the same setting: in the case of `N#Cc1c(-c2ccco2)cc(-c2ccc(Cl)cc2)nc1N` [Example 144] it was 182 µM; in that of `CC1Cc2c(nc(N)c(C#N)c2N)O1` (stereo not shown) [Example 71], 44.1 µM; in that of `N#Cc1c(-c2c[nH]c(C(=O)O)c2)cc(-c2ccco2)nc1N` [Example 76], 48.7 µM.
As to `COCC1Cc2c(nc(N)c(C#N)c2N)O1` (stereo not shown) [Example 118], the half-maximal inhibitory concentration (IC50) was 119 µM.
Turning to `N#Cc1c(N)nc2c(c1-c1cccc(C(=O)O)c1)CCc1[nH]ncc1-2` [Example 68], the IC50 came to 41.7 µM.
Same read-out and setting: then `N#Cc1c(-c2ccccc2F)cc(-c2ccc(C(=O)O)cc2)nc1N` [Example 25], with 6.4 µM; and `N#Cc1c(N)nc(SCC(=O)c2ccc(Cl)cc2)c(C#N)c1-c1ccco1` [Example 87], with 63.3 µM; and `N#Cc1c(N)nc2c(c1N)Cc1cccc(OCC(=O)O)c1O2` [Example 96], with 72.2 µM.
The same measure, in the same setting: in the case of `N#Cc1c(-c2cccc(F)c2)cc(-c2ccco2)nc1N` [Example 139] it was 164 µM.
Take `N#Cc1c(-c2ccccc2F)cc(-c2ccco2)nc1NCC(=O)O` [Example 115]: the IC50 was found to be 114 µM.
Take `N#Cc1c(-c2cnc[nH]2)cc(-c2ccccc2)nc1N` [Example 35]: the IC50 turned out to be 9.4 µM.
Turning to `COc1ccc(OCC2Cc3c(nc(N)c(C#N)c3N)O2)cc1` (stereo not shown) [Example 93], the IC50 was determined as 69.8 µM.
Take `CCCCC1Cc2c(nc(N)c(C#N)c2N)O1` (stereo not shown) [Example 77]: the 50% inhibitory concentration (IC50) was determined as 49.1 µM.
Still for that read-out and setting: then `CC(C)(C)NS(=O)(=O)c1ccc(-c2cc(-c3ccccc3)c(C#N)c(N)n2)cc1` [Example 90], with 68 µM.
For the compound `N#Cc1c(-c2ccc(C(=O)O)cc2)cc(-c2ccco2)nc1N` [Example 92], the IC50 turned out to be 59.8 µM.
Still for that read-out and setting: then `N#Cc1c(N)nc2c(c1-c1ccco1)CCc1cc(N)ccc1-2` [Example 74], with 46.8 µM; and `N#Cc1c(-c2cnc[nH]2)cc(-c2ccco2)nc1N` [Example 21], with 5.95 µM; and `N#Cc1c(N)nc2c(c1N)CC(COC(F)(F)C(F)F)O2` (stereo not shown) [Example 127], with 131 µM.
Still for that read-out and setting: in the case of `COc1ccc(-c2c(C#N)c(N)nc3c2CCc2[nH]ncc2-3)cc1` [Example 40] it was 12 µM.
Regarding `CCc1c(C#N)c(N)nc2[nH]nc(N)c12` [Example 131], the IC50 turned out to be 146 µM.
Same read-out and setting: in the case of `N#Cc1c(N)nc2c(c1-c1cccc(F)c1F)CCc1[nH]ncc1-2` [Example 3] it was 1.95 µM; in that of `C=CCOCC1Cc2c(nc(N)c(C#N)c2N)O1` (stereo not shown) [Example 116], 118 µM.
On the same count and under the same terms, then `N#Cc1c(N)nc2c(c1-c1ccc(C(=O)O)cc1)CCc1[nH]ncc1-2` [Example 134], with 155 µM.
